Measurements reported in EP2826473A1, “NOVEL USE OF PATCHOULOL” (Chengdu Huasun Group Inc., Ltd., priority 2012, dated 2013).
Converted amounts (≈) assume the structure as drawn. Where two headings read alike, the source gives them in different places.

Legend:
[1] = test system: Pseudomonas aeruginosa; experiment: in vitro bacteriostatic activity, agar dilution MIC; type: cell-based; details: Pseudomonas aeruginosa12-1
[2] = test system: Klebsiella pneumonia; experiment: in vitro bacteriostatic activity, agar dilution MIC, quality control strain and summary; type: cell-based; details: Klebsiella pneumoniae
[3] = test system: Staphylococcus haemolyticus; experiment: in vitro bacteriostatic activity, agar dilution MIC; type: cell-based
[4] = test system: Staphylococcus aureus MRSA; experiment: as above; type: cell-based
[5] = test system: Methicillin-resistant Staphylococcus aureus ATCC 43300; experiment: in vivo protection of model mice infected with methicillin-resistant Staphylococcus aureus; parameters: species or system KM mice; details: intraperitoneal injection once a day, within 14 days; for Survival number: 10 animals
Experimental: Tested strains' virulence assay: Methicillin-resistant Staphylococcus aureus was cultured in incubator at 37°C to reach exponential phase of growth, and then diluted with normal saline to obtain different gradient concentrations of bacterial liquid. Different concentrations of bacterial liquid were taken and mixed with equivalent 10% gastric mucin. Bacterial liquid was administrated to mice at 0.5 ml/20 g by intraperitoneal injection, and 5% gastric mucin was used as control. Under a premise of no control mice death, the death rate of mice within 14 days was recorded, and the minimum bacterial volumes leading to death of whole mice were measured, i.e. the minimum lethal dose (MLD) of bacterial liquid.
Pretesting of effective dose in vivo: Infection model mice infected by Methicillin-resistant Staphylococcus aureus were randomly divided into a few of groups (four mice per group), and a graded dose of each bacterial liquid was separately administrated to mice in each test group at one time per day. Moreover, administration of test drug was done one day ahead of schedule, and toxic substances were not eliminated until 0.5 h after administration on the second day. The death status of mice within 14 days was observed, to determine the dosage used in the formal experiment.
KM mice (grade SPF), half male and half female, weighing 18-22 g were randomly divided into […] groups with ten mice for each group, i.e. the group receiving vancomycin hydrochloride for injection; the groups receiving high, medium, and low doses of patchoulol; blank group; model group; and control group receiving gastric mucin. All of the mice were administrated by intraperitoneal injection once a day. The mice were administrated one day in advance and then attacked after 0.5h of administration on the second day, i.e. intraperitoneally injected with methicillin-resistant Staphylococcus aureus liquid containing 5% gastric mucin. Amongst, mice in the model group were given normal saline instead of test drug; mice in the blank group were not given drugs and attacked; mice in the gastric mucin control group were not given test drug, but only injected with 5% gastric mucin without bacteria.
The death status of mice within 14 days after injection of bacteria was observed, and its survival rate was recorded.

[6] = test system: Streptococcus agalactiae; experiment: in vitro bacteriostatic activity, agar dilution MIC; type: cell-based; details: Streptococcus agalactiae 12-1

In the case of `C[C@H]1CC[C@@]2(O)C(C)(C)[C@@H]3CC[C@@]2(C)[C@H]1C3` (stereo in doubt) [PC, (1R,4S,4aS,6R,8aS)-octahydro-4,8a,9,9-tetramethyl-1,6-methanonaphthalen-1(2H)-ol], the MIC [1] is reported as 50 µg/mL (≈ 225 µM), the MIC ([2]; ATCC700603, Klebsiella pneumonia ATCC 700603, read-out: MIC) is reported as over 768 µg/mL and the MIC ([2]; summary, Klebsiella pneumonia ESBLs^-/ESBLs^+, read-out: MIC values) is reported as at least 768 µg/mL. For the same molecule, the MIC [3] was 100 µg/mL (≈ 450 µM), the MIC ([4]; ATCC 43300 / MRSA, Methicillin-resistant Staphylococcus aureus ATCC 43300, read-out: MIC) was 128 µg/mL (≈ 576 µM) and the MIC ([4]; MRSA, Staphylococcus aureus MRSA 10-31, read-out: MIC) was 1.5 µg/mL (≈ 6.75 µM). For the same molecule, the MIC ([4]; MRSA, Staphylococcus aureus MRSA 10-32, read-out: MIC) was 1.5 µg/mL (≈ 6.75 µM), the MIC ([4]; MRSA, Staphylococcus aureus MRSA 12-11, read-out: MIC) was 128 µg/mL (≈ 576 µM) and the MIC ([4]; MRSA, Staphylococcus aureus MRSA 12-12, read-out: MIC) was 128 µg/mL (≈ 576 µM). The MIC ([4]; MRSA, Staphylococcus aureus MRSA 12-13, read-out: MIC) was 64 µg/mL (≈ 288 µM), the MIC ([4]; MRSA, Staphylococcus aureus MRSA 12-14, read-out: MIC) was 64 µg/mL (≈ 288 µM) and the MIC ([4]; MRSA, Staphylococcus aureus MRSA 12-15, read-out: MIC) was 64 µg/mL (≈ 288 µM). The MIC ([4]; MRSA, Staphylococcus aureus MRSA 12-16, read-out: MIC) was 64 µg/mL (≈ 288 µM), the MIC ([4]; MRSA, Staphylococcus aureus MRSA 12-17, read-out: MIC) was 128 µg/mL (≈ 576 µM) and the MIC ([4]; MRSA, Staphylococcus aureus MRSA 12-18, read-out: MIC) was 128 µg/mL (≈ 576 µM). It also gave an MIC ([4]; MRSA, Staphylococcus aureus MRSA 12-19, read-out: MIC) of 64 µg/mL (≈ 288 µM), an MIC ([4]; MRSA, Staphylococcus aureus MRSA 12-20, read-out: MIC) of 128 µg/mL (≈ 576 µM) and a Survival number ([5]; High dose 200 mg/kg) of 10. For the same molecule, the “Survial rate (%)” value ([5]; High dose 200 mg/kg) was 100%, the Survival number ([5]; Low dose 50 mg/kg) was 8 and the “Survial rate (%)” value ([5]; Low dose 50 mg/kg) was 80%. For the same molecule, the Survival number ([5]; Medium dose 100 mg/kg) was 10, the “Survial rate (%)” value ([5]; Medium dose 100 mg/kg) was 100% and the MIC [6] was 50 µg/mL (≈ 225 µM).
